Columns and labels:
[1] = system: mAB/LPS-induced experimental arthritis in male BALB/c mice; experiment: mAb/LPS-induced mice arthritis model; type: in vivo
Protocol: Treatment Regimen: Compound A was administered by oral gavage (PO), using a suitable stainless steel feeding needle. Enbrel (Reference Item) was administrated by intraperitoneal (IP) injections. Compound A was first administered on study Day 3 (one hour prior to the single LPS injection) and thereafter on Days 4, 5, 6, 7, 8, 9, 10, 11, 12 and 13 (total of 11 successive treatment days) at 1, 5 and 25 mg/kg once daily. Compound A treated groups comprised n=8 BALB/c male mice per dosing group. In addition, two equally sized groups were treated with either Enbrel (5 mg/kg/day, Reference Item), or a solution of 0.5% Na CMC/0.25% Tween 80 (PO, 5 ml/kg, Vehicle Control).
Arthritis Reactions: Both hind paws (left and right) of each animal were examined for signs of arthritogenic responses prior to arthritis induction (Day 0) and thereafter on study days 4, 5, 6, 7, 9, 11 & 14 as selected by the Sponsor. Arthritis reactions were scored and recorded according to a 0-4 scale in ascending order of severity (based on Morwell MD Biosciences Inc. brochure) as shown in Table 1.
Measurements of Experimental Arthritis: Hind paw thickness was determined on eight days using a Mitutoyo Electronic Digital Caliper (on Days 0, 4, 5, 6, 7, 9, 11 and 14) and presented as mean group values of the average for both left and right hind paws.

[2] = target: T1, PDE6 from bovine retinal rod outer segments (Bos taurus, UniProt P11541+P23439); experiment: Specificity: PDE6; type: biochemical
T1 construct: PDE6 from bovine retinal rod outer segments; from tissue; host or cells: bovine retinal rod outer segments
Protocol: (§1) The specificity of Compound A for PDE4 was assessed by testing at a single concentration (10 μM) against bovine PDE1, human PDE2, PDE3 and PDE5 from human platelets, and PDE6 from bovine retinal rod outer segments.

[3] = target: human PDE2 (Homo sapiens, UniProt O00408); experiment: Specificity: PDE2; type: biochemical
Protocol: as §1

[4] = system: PDE4 enzyme purified from U937 human monocytic cells; experiment: PDE4 inhibition; type: biochemical
Protocol: PDE4 enzyme was purified from U937 human monocytic cells by gel filtration chromatography (Muller et al. 1998, Bioorg. & Med. Chem. Lett. 1998. 8 (19):2669-74). Phosphodiesterase reactions were carried out in 50 MM Tris HCl pH 7.5, 5 mM MgCl2, 1 μM cAMP, 10 nM [^3H]-cAMP for 30 min at 30, terminated by boiling, treated with 1 mg/ml snake venom, and separated using AG-lXS ion exchange resin (BioRad).
as §1

[5] = system: LPS-stimulated monocyte TNF-α production; experiment: LPS-induced TNF-α production in monocytes; type: cell-based; settings: Homo sapiens, LPS 10 ng/ml, 24 hours
Protocol: LPS-induced TNF-α production in Monocytes: Monocytes separated from human peripheral blood mononuclear cells (PBMCs) were plated into a 96-well flat bottom plate at 1×10^5/well in RPMI (5% heat inactivated fetal calf serum (FCS) and then treated with increasing concentrations of Compound A and control (in triplicate). Following a 30 minute pre-incubation period, the monocytes were stimulated with LPS (10 ng/ml) and cultured for 24 hours at 37° C. in 5% CO2. The supernatants are then harvested and analyzed by ELISA.

[6] = Compound A 1 mg/kg/day PO, Day 0 (prior to arthritis induction)
[7] = Compound A 1 mg/kg/day PO, Day 4
[8] = Compound A 1 mg/kg/day PO, Day 5
[9] = Compound A 1 mg/kg/day PO, Day 6
[10] = Compound A 1 mg/kg/day PO, Day 7
[11] = Compound A 1 mg/kg/day PO, Day 9
[12] = Compound A 1 mg/kg/day PO, Day 11
[13] = Compound A 1 mg/kg/day PO, Day 14
[14] = Compound A 5 mg/kg/day PO, Day 0 (prior to arthritis induction)
[15] = Compound A 5 mg/kg/day PO, Day 4
[16] = Compound A 5 mg/kg/day PO, Day 5
[17] = Compound A 5 mg/kg/day PO, Day 6
[18] = Compound A 5 mg/kg/day PO, Day 7
[19] = Compound A 5 mg/kg/day PO, Day 9
[20] = Compound A 5 mg/kg/day PO, Day 11
[21] = Compound A 5 mg/kg/day PO, Day 14
[22] = Compound A 25 mg/kg/day PO, Day 0 (prior to arthritis induction)
[23] = Compound A 25 mg/kg/day PO, Day 4
[24] = Compound A 25 mg/kg/day PO, Day 5
[25] = Compound A 25 mg/kg/day PO, Day 6
[26] = Compound A 25 mg/kg/day PO, Day 7

T1 sequence (P11541 2-856 limits assumed): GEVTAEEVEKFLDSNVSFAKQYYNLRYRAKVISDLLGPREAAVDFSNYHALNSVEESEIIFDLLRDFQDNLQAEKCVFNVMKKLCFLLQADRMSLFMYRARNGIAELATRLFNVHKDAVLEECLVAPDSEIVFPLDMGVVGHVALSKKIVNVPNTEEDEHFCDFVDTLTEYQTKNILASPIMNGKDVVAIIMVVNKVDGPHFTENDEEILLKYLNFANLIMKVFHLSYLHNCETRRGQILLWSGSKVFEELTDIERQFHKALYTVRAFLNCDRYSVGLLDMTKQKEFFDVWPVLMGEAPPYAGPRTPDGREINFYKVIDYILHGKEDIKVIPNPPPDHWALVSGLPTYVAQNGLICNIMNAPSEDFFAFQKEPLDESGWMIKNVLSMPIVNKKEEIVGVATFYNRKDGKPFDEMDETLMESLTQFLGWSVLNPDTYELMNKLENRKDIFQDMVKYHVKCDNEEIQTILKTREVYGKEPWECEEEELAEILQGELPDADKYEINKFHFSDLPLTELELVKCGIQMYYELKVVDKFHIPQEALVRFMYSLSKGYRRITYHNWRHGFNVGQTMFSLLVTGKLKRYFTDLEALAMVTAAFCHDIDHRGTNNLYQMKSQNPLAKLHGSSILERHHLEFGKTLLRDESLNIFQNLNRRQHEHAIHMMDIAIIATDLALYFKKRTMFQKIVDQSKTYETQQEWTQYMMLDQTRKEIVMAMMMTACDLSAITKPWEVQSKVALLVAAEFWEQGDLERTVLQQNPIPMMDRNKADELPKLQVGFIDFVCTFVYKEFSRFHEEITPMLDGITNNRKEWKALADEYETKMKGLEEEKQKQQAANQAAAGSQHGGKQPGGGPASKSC
T1 sequence (P23439 2-850 limits assumed): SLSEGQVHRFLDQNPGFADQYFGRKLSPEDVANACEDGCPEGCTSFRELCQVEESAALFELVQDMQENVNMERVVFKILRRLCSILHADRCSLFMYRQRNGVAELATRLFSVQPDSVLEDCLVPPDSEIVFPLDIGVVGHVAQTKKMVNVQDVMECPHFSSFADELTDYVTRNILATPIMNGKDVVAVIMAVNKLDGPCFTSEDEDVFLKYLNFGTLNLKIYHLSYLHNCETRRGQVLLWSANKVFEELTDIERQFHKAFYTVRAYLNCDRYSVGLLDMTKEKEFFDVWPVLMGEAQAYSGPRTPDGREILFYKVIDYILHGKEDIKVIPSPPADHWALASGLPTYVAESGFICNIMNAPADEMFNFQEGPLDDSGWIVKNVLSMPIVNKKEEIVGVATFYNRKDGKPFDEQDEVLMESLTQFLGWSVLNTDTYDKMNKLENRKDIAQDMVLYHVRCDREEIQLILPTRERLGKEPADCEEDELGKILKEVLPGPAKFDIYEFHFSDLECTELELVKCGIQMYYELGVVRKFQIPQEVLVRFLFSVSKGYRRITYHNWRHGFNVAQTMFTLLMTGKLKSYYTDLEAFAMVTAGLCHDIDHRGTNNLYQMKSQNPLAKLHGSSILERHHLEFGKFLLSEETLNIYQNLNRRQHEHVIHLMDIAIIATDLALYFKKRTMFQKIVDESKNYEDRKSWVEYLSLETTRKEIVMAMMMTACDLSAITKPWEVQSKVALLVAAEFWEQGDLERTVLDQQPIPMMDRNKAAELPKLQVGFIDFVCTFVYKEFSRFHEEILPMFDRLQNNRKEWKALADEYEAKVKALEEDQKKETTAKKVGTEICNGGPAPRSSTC
Sequence of human PDE2 (O00408 whole entry): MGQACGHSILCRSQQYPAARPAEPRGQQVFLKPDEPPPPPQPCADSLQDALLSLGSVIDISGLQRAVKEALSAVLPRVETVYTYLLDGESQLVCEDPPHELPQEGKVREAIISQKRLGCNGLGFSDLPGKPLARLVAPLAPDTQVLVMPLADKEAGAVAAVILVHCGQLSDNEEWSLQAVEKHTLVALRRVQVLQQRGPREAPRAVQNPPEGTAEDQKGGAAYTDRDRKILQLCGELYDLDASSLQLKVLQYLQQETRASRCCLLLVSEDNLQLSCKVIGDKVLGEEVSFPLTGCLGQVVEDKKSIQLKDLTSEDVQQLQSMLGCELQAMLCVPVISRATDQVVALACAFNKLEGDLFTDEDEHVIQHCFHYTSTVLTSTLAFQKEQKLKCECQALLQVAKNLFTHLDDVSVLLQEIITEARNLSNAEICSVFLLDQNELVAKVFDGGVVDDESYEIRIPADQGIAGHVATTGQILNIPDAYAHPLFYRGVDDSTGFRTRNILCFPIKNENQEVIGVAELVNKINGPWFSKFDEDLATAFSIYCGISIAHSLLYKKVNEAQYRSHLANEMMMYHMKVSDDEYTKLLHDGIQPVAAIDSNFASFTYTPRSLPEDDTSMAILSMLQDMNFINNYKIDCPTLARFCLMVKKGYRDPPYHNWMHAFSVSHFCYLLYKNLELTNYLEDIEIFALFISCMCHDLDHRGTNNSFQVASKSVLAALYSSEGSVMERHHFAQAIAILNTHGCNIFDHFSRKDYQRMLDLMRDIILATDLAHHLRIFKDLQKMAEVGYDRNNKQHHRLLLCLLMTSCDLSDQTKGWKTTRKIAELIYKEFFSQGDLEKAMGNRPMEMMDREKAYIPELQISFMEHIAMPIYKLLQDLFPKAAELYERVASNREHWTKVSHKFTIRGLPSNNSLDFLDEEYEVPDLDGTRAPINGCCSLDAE

In the case of `CCOc1cc([C@@H](CS(C)(=O)=O)N2Cc3cccc(NC(=O)C4CC4)c3C2=O)ccc1OC` [Compound A, cyclopropyl-N-{2-[(1S)-1-(3-ethoxy-4-methoxyphenyl)-2-(methylsulfonyl)ethyl]-3-oxoisoindoline-4-yl}carboxamide], the “Arthritis Scoring, mean of both hind paws (0-4 scale)” value (from here on “Arthritis Scoring, mean”) [1, 6] is reported as 0, the “Hind Paws Thickness, group mean” value [1, 6] is reported as 2.2 mm and the “Arthritis Scoring, mean” value [1, 7] is reported as 0. For the same compound, the “Hind Paws Thickness, group mean” value [1, 7] was 2.2 mm, the “Percentage Change in Hind Paw Thickness vs. Study Commencement (Day 0), group mean” value (shortened to “Percentage Change”) [1, 7] was 1% and the “Arthritis Scoring, mean” value [1, 8] was 1. For the same compound, the “Hind Paws Thickness, group mean” value [1, 8] was 2.4 mm, the “Percentage Change” value [1, 8] was 8% and the “Arthritis Scoring, mean” value [1, 9] was 2. For the same compound, the “Hind Paws Thickness, group mean” value [1, 9] was 2.7 mm, the “Percentage Change” value [1, 9] was 24% and the “Arthritis Scoring, mean” value [1, 10] was 2. For the same compound, the “Hind Paws Thickness, group mean” value [1, 10] was 2.8 mm, the “Percentage Change” value [1, 10] was 27% and the “Arthritis Scoring, mean” value [1, 11] was 2. For the same compound, the “Hind Paws Thickness, group mean” value [1, 11] was 2.7 mm, the “Percentage Change” value [1, 11] was 23% and the “Arthritis Scoring, mean” value [1, 12] was 1. For the same compound, the “Percentage Change” value [1, 12] was 13%, the “Arthritis Scoring, mean” value [1, 13] was 1 and the “Hind Paws Thickness, group mean” value [1, 13] was 2.4 mm. The “Percentage Change” value [1, 13] was 7%, the “Arthritis Scoring, mean” value [1, 14] was 0 and the “Hind Paws Thickness, group mean” value [1, 14] was 2.2 mm. The “Arthritis Scoring, mean” value [1, 15] was 0, the “Hind Paws Thickness, group mean” value [1, 15] was 2.2 mm and the “Percentage Change” value [1, 15] was 1%. The “Arthritis Scoring, mean” value [1, 16] was 1, the “Hind Paws Thickness, group mean” value [1, 16] was 2.5 mm and the “Percentage Change” value [1, 16] was 12%. The “Arthritis Scoring, mean” value [1, 17] was 2, the “Hind Paws Thickness, group mean” value [1, 17] was 2.8 mm and the “Percentage Change” value [1, 17] was 30%. The “Arthritis Scoring, mean” value [1, 18] was 2, the “Hind Paws Thickness, group mean” value [1, 18] was 2.8 mm and the “Percentage Change” value [1, 18] was 30%. For the same compound, the “Arthritis Scoring, mean” value [1, 19] was 2, the “Hind Paws Thickness, group mean” value [1, 19] was 2.7 mm and the “Percentage Change” value [1, 19] was 21%. The “Arthritis Scoring, mean” value [1, 20] was 1, the “Percentage Change” value [1, 20] was 15% and the “Arthritis Scoring, mean” value [1, 21] was 1. The “Hind Paws Thickness, group mean” value [1, 21] was 2.5 mm, the “Percentage Change” value [1, 21] was 13% and the “Arthritis Scoring, mean” value [1, 22] was 0. The “Hind Paws Thickness, group mean” value [1, 22] was 2.2 mm, the “Arthritis Scoring, mean” value [1, 23] was 0 and the “Hind Paws Thickness, group mean” value [1, 23] was 2.2 mm. For the same compound, the “Percentage Change” value [1, 23] was 0%, the “Arthritis Scoring, mean” value [1, 24] was 1 and the “Hind Paws Thickness, group mean” value [1, 24] was 2.4 mm. For the same compound, the “Percentage Change” value [1, 24] was 8%, the “Arthritis Scoring, mean” value [1, 25] was 2 and the “Hind Paws Thickness, group mean” value [1, 25] was 2.7 mm. The “Percentage Change” value [1, 25] was 21%, the “Arthritis Scoring, mean” value [1, 26] was 2 and the “Hind Paws Thickness, group mean” value [1, 26] was 2.7 mm. The “Percentage Change” value [1, 26] was 21%, the “Arthritis Scoring, mean” value ([1]; Compound A 25 mg/kg/day PO, Day 11) was 1 and the inhibition at 10 µM [2] was 17%. For the same compound, the inhibition at 10 µM [3] was -14%, the IC50 ([4]; 1 μM cAMP) was 100 nM and the “PDE4 IC50 (from U937 cells)” value ([4]; 1 μM cAMP) was 50 ng/mL. The PDE4 % inhibition ([4]; at 10 μM) was 95% and the IC50 [5] was 40 nM.
